The conditions of data set [1]: Crystal; DTA.
The nature of data set [2]: Molar enthalpy of transition or fusion. Conditions: Crystal; DSC.

Numbers after ± are expanded uncertainties.

Take `O=Cc1cccc([N+](=O)[O-])c1` [3-nitrobenzaldehyde]: in data set [1], the Normal melting temperature was 55.07 ± 1.1 °C. Further, the “Molar enthalpy of transition or fusion” value in data set [2] stood at 4.76 ± 0.217 kcal/mol.

The values above are taken from the NIST ThermoML archive (doi:10.1016/j.jct.2016.10.040).
